What was measured:
[1] = Comparative brain/liver uptake of 14C-labeled compounds (Brain Penetration Index)
GABA "receptors" = assay: Inhibition of [3H]GABA binding to synaptic membranes from rat cerebellum; conditions: [3H]GABA (15 nM); synaptic membrane preparations from rat cerebellum
Protocol: IC50 values were determined by fitting data to linearized transformations, based on including at least two concentrations of antagonists above and below the IC50, with at least triplicate replication per concentration.

[2] = 1 hr after administration; TLC
[3] = 50 μmol/kg s.c., 5 min, mice, mean ± S.E.M. (n = 3)

## (3-Cholesteryl)-gamma-Aminobutyrate [Compound 6]
[1]; [3]
  (BRAIN): 0.17 ± 0.03 nmol/g
  (LIVER): 0.69 ± .08 nmol/g
  BPI: 25 ± 7%
[1]; 50 μmol/kg s.c., 15 min, mice
  (BRAIN): 0.67 nmol/g
  (LIVER): 1.19 nmol/g
  BPI: 56%
[1]; 50 μmol/kg s.c., 60 min, mice
  (BRAIN): 0.79 nmol/g
  (LIVER): 0.92 nmol/g
  BPI: 86%
[1]; 50 μmol/kg s.c., 180 min, mice
  (BRAIN): 0.60 nmol/g
  (LIVER): 1.89 nmol/g
  BPI: 32%
[1]; 5 min after s.c. injection, relative to GABA
  increase of 5-min BPI over GABA: 25 fold
[1]; Table IX summary, 5-min Brain Penetration Index
  BPI: 25
[1]; s.c., mice
  accumulation of radioactivity in brain persisted post-injection: 45 to 60 min
GABA "receptors"
  IC50: 10 µM
[2]
  labeled compound present as intact molecules in brain homogenates: about 70%
